What was measured:
[1] = tested on: E. coli O157:H7 N192-5-1; experiment: MIL-based whole-cell extraction; parameters: species or system Escherichia coli; conditions: 1×10^6 CFU mL^−1 in TSB, 15 μL MIL
Procedure: (§1) A universal schematic for MIL-based cell extraction is depicted in FIG. 7B. A 1 mL volume of diluted cell suspension was added to a flat-bottomed 4-mL screw cap glass vial. Fifteen microliters of either the Ni(II) or Dy(III) MIL was added and dispersed into microdroplets by vortex agitation for 30 s. The aqueous phase was decanted following dispersive extraction, and the MIL was subjected to a brief wash step using 1 mL of nuclease-free water (Integrated DNA Technologies, Coralville, IA, USA) to ensure adequate removal of loosely or incidentally bound cells. After washing, release of viable cells from the MIL extraction phase was carried out using a “back-extraction” step accomplished through addition of 1 mL of an ionically-rich nutritive medium comprised of 20 g L^−1 tryptone and 10 g L^−1 NaCl, followed by a 120 s vortex step. After back-extraction, aliquots of the cell-enriched back-extraction medium were enumerated using the track dilution method using 100×100 mm square, gridded TSA, BSA, CA or VRBGA plates.
(§2) Following back-extraction, aliquots of the cell-enriched back-extraction medium were serially diluted in 0.1% peptone water and a 10 μL aliquot of each dilution was applied to a separate lane on square plates containing an appropriate agar medium. The plates were then tilted at an approximately 80° angle for 15 min to allow the droplets to travel toward the opposite end of the plate. The plates were incubated for 24 h at 37° C. (TSA, VRBGA), for 48 h at 37° C. (BSA) or for 24 h at 37° C. (CA). Colonies were counted and colony forming units (CFU) were determined. The enrichment factor (EF) for MIL-based extraction was calculated using Equation 1, where CMIL represents the concentration of bacteria in suspension following extraction using the MIL and CS is the initial concentration of bacteria in the sample.
(§3) In order to explore the broader utility of our approach, evaluation of additional cell types is needed. We began this extended evaluation of the Ni(II) MIL with seven representative DNA subgroups of Salmonella and eight strains of E. coli O157:H7. Briefly, a 1 mL aliquot of TSB was inoculated with 1×10^6 CFU mL^−1 of bacteria, and spiked with 15 μL of the Ni(II) MIL. MIL-based extraction was performed and 10 μL aliquots of the back-extraction solution were enumerated using TSA and BSA plates (Salmonella) or TSA plates (E. coli O157:H7). […] We later determined that VRBGA was a suitable common medium for this purpose and used this in our statistical analysis. Average CFU counts were compared to standards that were not exposed to the Ni(II) MIL. Enrichment factors were calculated for Salmonella on both non-selective (TSA) and selective agars (BSA) and for E. coli O157:H7 on non-selective agar (TSA). […] Note: As BSA is a Salmonella-specific agar E. coli O157:H7 was not plated to BSA in this example.

[2] = tested on: E. coli O157:H7 N192-6-1; experiment: MIL-based whole-cell extraction; parameters: species or system Escherichia coli; conditions: 1×10^6 CFU mL^−1 in TSB, 15 μL MIL
Procedure: as §1, §2, §3

[3] = tested on: E. coli O157:H7 N317-3-1; experiment: MIL-based whole-cell extraction; parameters: species or system Escherichia coli; conditions: 1×10^6 CFU mL^−1 in TSB, 15 μL MIL
Procedure: as §1, §2, §3

[4] = tested on: E. coli O157:H7 N336-4-1; experiment: MIL-based whole-cell extraction; parameters: species or system Escherichia coli; conditions: 1×10^6 CFU mL^−1 in TSB, 15 μL MIL
Procedure: as §1, §2, §3

[5] = tested on: E. coli O157:H7 N366-2-2; experiment: MIL-based whole-cell extraction; parameters: species or system Escherichia coli; conditions: 1×10^6 CFU mL^−1 in TSB, 15 μL MIL
Procedure: as §1, §2, §3

[6] = tested on: E. coli O157:H7 N405-5-8; experiment: MIL-based whole-cell extraction; parameters: species or system Escherichia coli; conditions: 1×10^6 CFU mL^−1 in TSB, 15 μL MIL
Procedure: as §1, §2, §3

[7] = tested on: E. coli O157:H7 N549-3-1; experiment: MIL-based whole-cell extraction; parameters: species or system Escherichia coli; conditions: 1×10^6 CFU mL^−1 in TSB, 15 μL MIL
Procedure: as §1, §2, §3

[8] = tested on: E. coli O157:H7 N886-71; experiment: MIL-based whole-cell extraction; parameters: species or system Escherichia coli; conditions: 1×10^6 CFU mL^−1 in TSB, 15 μL MIL
Procedure: as §1, §2, §3

[9] = tested on: C. sakazakii 01088P; experiment: MIL-based whole-cell extraction; parameters: species or system Cronobacter sakazakii; conditions: EF determined using Tryptic Soy Agar
Procedure: (§4) A universal schematic for MIL-based cell extraction is depicted in FIG. 7B. A 1 mL volume of diluted cell suspension was added to a flat-bottomed 4-mL screw cap glass vial. Fifteen microliters of either the Ni(II) or Dy(III) MIL was added and dispersed into microdroplets by vortex agitation for 30 s. The aqueous phase was decanted following dispersive extraction, and the MIL was subjected to a brief wash step using 1 mL of nuclease-free water (Integrated DNA Technologies, Coralville, IA, USA) to ensure adequate removal of loosely or incidentally bound cells. […]
as §2, with “The plates were then tilted at an approximately 80° angle for 15 min to allow the droplets to travel toward the opposite end of the plate. The plates were incubated for 24 h at 37° C. (TSA, VRBGA), for 48 h at 37° C. (BSA) or for 24 h at 37° C. (CA).” left out

[10] = tested on: E. amylovora Ea935; experiment: MIL-based whole-cell extraction; parameters: species or system Erwinia amylovora; conditions: EF determined using Columbia Agar
Procedure: as §4
as §2, with “The plates were then tilted at an approximately 80° angle for 15 min to allow the droplets to travel toward the opposite end of the plate. The plates were incubated for 24 h at 37° C. (TSA, VRBGA), for 48 h at 37° C. (BSA) or for 24 h at 37° C. (CA).” left out

[11] = tested on: E. coli O157:H7; type: cell-based, Escherichia coli; conditions: no significant differences (p-value=0.4491)
Procedure: The following statistical analysis was performed in SAS 9.4. Four master suspensions of bacteria were prepared for four Salmonella enterica serovars: subsp. typhimurium, subsp. arizonae, subsp. diarizonae and subsp. houtenae. Two master suspensions were made for the remaining three Salmonella serovars or species: S. enterica subsp. indica, subsp. salamae and S. bongori. For E. coli O157:H7, two master suspensions of bacteria were prepared for each of the eight strains studied. For all bacteria tested, two replicate extractions from the same master suspension were performed, using the 10-3 dilution. Following MIL-based capture, back-extraction solutions were plated to non-selective agar (TSA) and selective agar (BSA) for Salmonella and SMAC for E. coli. To identify whether significant differences existed for the capture of Salmonella and E. coli O157:H7, we applied a linear mixed model for the response variable (enrichment factor) with log transformation in order to reduce skewness. […]
In order to explore the broader utility of our approach, evaluation of additional cell types is needed. […] We later determined that VRBGA was a suitable common medium for this purpose and used this in our statistical analysis. […] Enrichment factors were calculated for Salmonella on both non-selective (TSA) and selective agars (BSA) and for E. coli O157:H7 on non-selective agar (TSA). […]

## CCCCCCCCCCCCCC[P+](CCCCCC)(CCCCCC)CCCCCC.O=C([CH-]C(=O)C(F)(F)F)C(F)(F)F.O=C([CH-]C(=O)C(F)(F)F)C(F)(F)F.O=C([CH-]C(=O)C(F)(F)F)C(F)(F)F.[Ni+2] [Ni(II) MIL, [P66614^+][Ni(hfacac)3^−]]
[1]
  Enrichment Factor (TSA): 7
[2]
  Enrichment Factor (TSA): 9
[3]
  Enrichment Factor (TSA): 4
[4]
  Enrichment Factor (TSA): 3
[5]
  Enrichment Factor (TSA): 4
[6]
  Enrichment Factor (TSA): 2
[7]
  Enrichment Factor (TSA): 8
[8]
  Enrichment Factor (TSA): 4
[9]
  Enrichment Factor: 12
[10]
  Enrichment Factor: 10
[11]
  MIL-conferred injury: recovery on TSA vs VRBGA: no injury could be detected
